# Data reported in patent US11548870B2, “Compounds useful as inhibitors of helios protein” (Bristol-Myers Squibb Company, priority 2019, dated 2023).
# Like-named read-outs stand apart in the source and are kept apart here.
# Legend:
# Helios = target: T1, Helios (Homo sapiens, UniProt Q96SW2+Q9UKS7); test: Helios Cellular Degradation Assay (flow cytometry, Helios-PE antibody staining, 72 h); type: cell-based; details: for Dmax: Jurkat, read-out: Helios Dmax
# T1 construct: fluorescently labelled antibodies against Helios and Ikaros; endogenous in cells; host or cells: Jurkat cells
# T1 sequence (Q9UKS7 whole entry): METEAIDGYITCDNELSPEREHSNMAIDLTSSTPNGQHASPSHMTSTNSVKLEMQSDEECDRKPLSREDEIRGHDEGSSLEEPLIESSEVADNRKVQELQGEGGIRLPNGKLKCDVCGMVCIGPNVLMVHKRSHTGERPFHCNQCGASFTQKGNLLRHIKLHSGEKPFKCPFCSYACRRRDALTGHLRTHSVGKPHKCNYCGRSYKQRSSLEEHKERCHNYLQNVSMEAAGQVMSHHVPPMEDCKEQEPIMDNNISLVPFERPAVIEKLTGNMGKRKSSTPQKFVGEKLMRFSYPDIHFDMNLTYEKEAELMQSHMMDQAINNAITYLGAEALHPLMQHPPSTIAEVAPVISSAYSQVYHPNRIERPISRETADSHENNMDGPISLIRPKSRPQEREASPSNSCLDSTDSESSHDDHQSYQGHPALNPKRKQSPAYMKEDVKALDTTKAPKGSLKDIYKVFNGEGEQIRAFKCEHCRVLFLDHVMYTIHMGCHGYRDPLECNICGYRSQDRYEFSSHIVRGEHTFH
# T1 sequence (Q96SW2 whole entry): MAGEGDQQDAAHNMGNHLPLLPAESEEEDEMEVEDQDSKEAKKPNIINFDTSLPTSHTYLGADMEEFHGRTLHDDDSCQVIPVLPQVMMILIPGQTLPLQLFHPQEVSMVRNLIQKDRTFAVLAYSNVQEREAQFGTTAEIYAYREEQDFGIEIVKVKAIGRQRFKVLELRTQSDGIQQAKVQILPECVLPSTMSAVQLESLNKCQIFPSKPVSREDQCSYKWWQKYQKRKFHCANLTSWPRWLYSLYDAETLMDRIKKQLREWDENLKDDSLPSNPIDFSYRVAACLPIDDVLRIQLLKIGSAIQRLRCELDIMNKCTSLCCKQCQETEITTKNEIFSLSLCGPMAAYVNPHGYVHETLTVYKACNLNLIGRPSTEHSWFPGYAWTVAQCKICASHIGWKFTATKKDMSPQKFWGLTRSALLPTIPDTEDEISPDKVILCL
# T1 sequence (Q16531 whole entry partner): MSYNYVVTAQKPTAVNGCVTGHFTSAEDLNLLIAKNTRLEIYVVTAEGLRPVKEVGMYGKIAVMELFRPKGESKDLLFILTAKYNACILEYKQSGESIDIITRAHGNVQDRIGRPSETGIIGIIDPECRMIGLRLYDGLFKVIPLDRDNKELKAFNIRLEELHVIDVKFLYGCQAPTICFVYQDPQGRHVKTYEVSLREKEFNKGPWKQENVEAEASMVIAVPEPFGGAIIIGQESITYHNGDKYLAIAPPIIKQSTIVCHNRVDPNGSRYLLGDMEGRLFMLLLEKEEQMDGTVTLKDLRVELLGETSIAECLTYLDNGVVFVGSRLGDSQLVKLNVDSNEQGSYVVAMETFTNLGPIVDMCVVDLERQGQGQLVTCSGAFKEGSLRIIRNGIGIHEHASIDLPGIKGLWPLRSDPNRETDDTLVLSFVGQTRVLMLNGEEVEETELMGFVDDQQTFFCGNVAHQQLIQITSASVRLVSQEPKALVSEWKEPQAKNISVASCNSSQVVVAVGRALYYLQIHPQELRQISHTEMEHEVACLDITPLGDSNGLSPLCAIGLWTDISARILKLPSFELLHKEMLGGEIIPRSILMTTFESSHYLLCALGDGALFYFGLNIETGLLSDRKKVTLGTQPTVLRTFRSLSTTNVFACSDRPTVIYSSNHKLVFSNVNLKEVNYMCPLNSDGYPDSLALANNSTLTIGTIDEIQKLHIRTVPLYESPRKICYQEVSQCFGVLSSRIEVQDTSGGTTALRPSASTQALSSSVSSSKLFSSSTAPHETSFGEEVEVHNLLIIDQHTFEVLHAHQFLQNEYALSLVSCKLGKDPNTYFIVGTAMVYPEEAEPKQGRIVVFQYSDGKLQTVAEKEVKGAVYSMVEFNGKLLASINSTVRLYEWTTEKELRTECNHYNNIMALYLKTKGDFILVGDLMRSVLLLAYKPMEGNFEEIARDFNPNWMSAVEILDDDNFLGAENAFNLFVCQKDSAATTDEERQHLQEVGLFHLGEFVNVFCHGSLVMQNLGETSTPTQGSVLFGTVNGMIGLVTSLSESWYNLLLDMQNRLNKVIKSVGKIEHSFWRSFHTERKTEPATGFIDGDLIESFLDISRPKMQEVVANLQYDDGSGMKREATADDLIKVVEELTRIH
# Outline: (§1)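 Flow cytometry of fixed, permeabilized Jurkat cells stained with anti-Helios-PE and anti-Ikaros-Alexa488 (1 h, room temperature) measured remaining protein. Treatment lasted 72 h at 37 °C, 5% CO2, at 80,000 cells/well in RPMI with 10% FBS.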
# Ikaros = target: T2, Ikaros (Homo sapiens, UniProt Q13422); test: Helios Cellular Degradation Assay, Ikaros readout (flow cytometry, Ikaros-Alexa488 antibody staining, 72 h); type: cell-based; details: Jurkat cells, 72 h incubation, flow cytometry; for Dmax: Jurkat, read-out: Ikaros Dmax
# T2 construct: fluorescently labelled antibodies against Helios and Ikaros; endogenous in cells; host or cells: Jurkat cells
# T2 sequence (Q96SW2 whole entry partner): as the sequence (Q96SW2 whole entry) above
# T2 sequence (Q16531 whole entry partner): as the sequence (Q16531 whole entry partner) above
# T2 sequence (Q13422 whole entry): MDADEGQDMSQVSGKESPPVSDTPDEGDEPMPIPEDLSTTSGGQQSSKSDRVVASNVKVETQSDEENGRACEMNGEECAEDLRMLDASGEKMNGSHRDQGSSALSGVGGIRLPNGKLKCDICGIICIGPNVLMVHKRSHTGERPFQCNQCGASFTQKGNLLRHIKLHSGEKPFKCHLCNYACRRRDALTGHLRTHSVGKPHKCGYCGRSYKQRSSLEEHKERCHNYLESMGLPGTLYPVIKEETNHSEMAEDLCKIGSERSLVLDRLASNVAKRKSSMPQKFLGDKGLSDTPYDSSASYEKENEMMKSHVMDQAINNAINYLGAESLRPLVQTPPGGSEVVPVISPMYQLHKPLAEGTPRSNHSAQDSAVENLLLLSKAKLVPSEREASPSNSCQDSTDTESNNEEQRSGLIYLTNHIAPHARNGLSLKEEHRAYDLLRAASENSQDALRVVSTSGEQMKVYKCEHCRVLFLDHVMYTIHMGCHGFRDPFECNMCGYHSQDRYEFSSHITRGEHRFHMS
# Outline: as §1
# [1] = Jurkat cells, 72 h incubation, flow cytometry
Structure (SMILES),DC50 (Helios; [1]) [nM],Dmax (Helios; [1]) [%],DC50 (Ikaros) [nM],Dmax (Ikaros) [%],Dmax (Helios) [%]
"CC1(c2ccc(N)cc2)CCN(Cc2ccnc(-c3ccc4c(c3)CN(C3CCC(=O)NC3=O)C4=O)c2)CC1 (centres unmarked) [Example 121, 3-(5-(4-((4-(4-aminophenyl)-4-methylpiperidin-1-yl)methyl)pyridin-2-yl)-1-oxoisoindolin-2-yl)piperidine-2,6-dione]",24,–,> 10000,19,77
"C[C@@H](NCc1ccnc(-c2ccc3c(c2)CN(C2CCC(=O)NC2=O)C3=O)c1)c1ccccc1 (stereo partly drawn) [Example 122, 3-(1-oxo-5-(4-((((R)-1-phenylethyl)amino)methyl)pyridin-2-yl)isoindolin-2-yl)piperidine-2,6-dione]",14,88,> 10000,4,–
"O=C1CCC(N2Cc3cc(-c4cc(CNCC5(O)CCCCC5)ccn4)ccc3C2=O)C(=O)N1 (centres unmarked) [Example 124, 3-(5-(4-((((1-hydroxycyclohexyl)methyl)amino)methyl)pyridin-2-yl)-1-oxoisoindolin-2-yl)piperidine-2,6-dione]",58,95,> 10000,11,–
"O=C1CCC(N2Cc3cc(-c4cc(CN5CCC6(CC5)CC6)ccn4)ccc3C2=O)C(=O)N1 (centres unmarked) [Example 127, 3-(5-(4-((6-azaspiro[2.5]octan-6-yl)methyl)pyridin-2-yl)-1-oxoisoindolin-2-yl)piperidine-2,6-dione]",35,84,> 10000,6,–
"O=C1CCC(N2Cc3cc(-c4cc(CNCC5CCO5)ccn4)ccc3C2=O)C(=O)N1 (centres unmarked) [Example 129, 3-(5-(4-(((oxetan-2-ylmethyl)amino)methyl)pyridin-2-yl)-1-oxoisoindolin-2-yl)piperidine-2,6-dione]",232,74,> 10000,2,–
"CC(C)OC1CN(Cc2ccnc(-c3ccc4c(c3)CN(C3CCC(=O)NC3=O)C4=O)c2)C1 (centres unmarked) [Example 130, 3-(5-(4-((3-isopropoxyazetidin-1-yl)methyl)pyridin-2-yl)-1-oxoisoindolin-2-yl)piperidine-2,6-dione]",244,56,> 10000,13,–
"O=C1CCC(N2Cc3cc(-c4cc(CN5CCC[C@@H]5c5ccccc5)ccn4)ccc3C2=O)C(=O)N1 (stereo partly drawn) [Example 134, 3-(1-oxo-5-(4-(((R)-2-phenylpyrrolidin-1-yl)methyl)pyridin-2-yl)isoindolin-2-yl)piperidine-2,6-dione]",16,95,> 10000,19,–
"O=C1CCC(N2Cc3cc(-c4cc(CN5CCC[C@@H](c6ccccc6)C5)ccn4)ccc3C2=O)C(=O)N1 (stereo partly drawn) [Example 135, 3-(1-oxo-5-(4-(((S)-3-phenylpiperidin-1-yl)methyl)pyridin-2-yl)isoindolin-2-yl)piperidine-2,6-dione]",1310,60,> 10000,4,–
"C[C@@H](c1ccccc1)N(C)Cc1ccnc(-c2ccc3c(c2)CN(C2CCC(=O)NC2=O)C3=O)c1 (stereo partly drawn) [Example 136, 3-(5-(4-((methyl((S)-1-phenylethyl)amino)methyl)pyridin-2-yl)-1-oxoisoindolin-2-yl)piperidine-2,6-dione]",84,62,> 10000,0,–
"O=C1CCC(N2Cc3cc(-c4cc(CN5CC[C@H](c6ccccc6)C5)ccn4)ccc3C2=O)C(=O)N1 (stereo partly drawn) [Example 138, 3-(1-oxo-5-(4-(((R)-3-phenylpyrrolidin-1-yl)methyl)pyridin-2-yl)isoindolin-2-yl)piperidine-2,6-dione]",37,82,> 10000,18,–
"O=C1CCC(N2Cc3cc(-c4cc(CN5CCC(c6ccccc6)CC5)ccn4)ccc3C2=O)C(=O)N1 (centres unmarked) [Example 141, 3-(1-oxo-5-(4-((4-phenylpiperidin-1-yl)methyl)pyridin-2-yl)isoindolin-2-yl)piperidine-2,6-dione]",46,82,> 10000,20,–
"O=C1CCC(N2Cc3cc(-c4cc(CN5CCCC(c6ccccc6)C5)ccn4)ccc3C2=O)C(=O)N1 (centres unmarked) [Example 143, 3-(1-oxo-5-(4-((3-phenylpiperidin-1-yl)methyl)pyridin-2-yl)isoindolin-2-yl)piperidine-2,6-dione]",40,62,> 10000,1,–

# Further lines, with some results ahead:
DC50 (Helios; [1]) [nM],Dmax (Helios; [1]) [%],DC50 (Ikaros) [nM],Dmax (Ikaros) [%],Structure (SMILES),Dmax (Helios) [%]
2360,53,> 10000,3,"CC1CCC(C)N1Cc1ccnc(-c2ccc3c(c2)CN(C2CCC(=O)NC2=O)C3=O)c1 (centres unmarked) [Example 119, 3-(5-(4-((2,5-dimethylpyrrolidin-1-yl)methyl)pyridin-2-yl)-1-oxoisoindolin-2-yl)piperidine-2,6-dione]",–
85,84,> 10000,3,"C[C@@H]1CCC[C@H](C)N1Cc1ccnc(-c2ccc3c(c2)CN(C2CCC(=O)NC2=O)C3=O)c1 (stereo partly drawn) [Example 120, 3-(5-(4-(((2R,6S)-2,6-dimethylpiperidin-1-yl)methyl)pyridin-2-yl)-1-oxoisoindolin-2-yl)piperidine-2,6-dione]",–
7,92,> 10000,8,"C[C@H](NCc1ccnc(-c2ccc3c(c2)CN(C2CCC(=O)NC2=O)C3=O)c1)c1ccccc1 (stereo partly drawn) [Example 123, 3-(1-oxo-5-(4-((((S)-1-phenylethyl)amino)methyl)pyridin-2-yl)isoindolin-2-yl) piperidine-2,6-dione]",–
16,93,> 10000,8,"C[C@@H]1CCCN1Cc1ccnc(-c2ccc3c(c2)CN(C2CCC(=O)NC2=O)C3=O)c1 (stereo partly drawn) [Example 125, 3-(5-(4-(((R)-2-methylpyrrolidin-1-yl)methyl)pyridin-2-yl)-1-oxoisoindolin-2-yl) piperidine-2,6-dione]",–
82,99,> 10000,22,"CC1CC(NCc2ccnc(-c3ccc4c(c3)CN(C3CCC(=O)NC3=O)C4=O)c2)CCO1 (centres unmarked) [Example 126, 3-(5-(4-(((2-methyltetrahydro-2H-pyran-4-yl)amino)methyl)pyridin-2-yl)-1-oxoisoindolin-2-yl) piperidine-2,6-dione]",–
93,94,> 10000,28,"O=C1CCC(N2Cc3cc(-c4cc(CNCCCCO)ccn4)ccc3C2=O)C(=O)N1 (centres unmarked) [Example 128, 3-(5-(4-(((4-hydroxybutyl)amino)methyl)pyridin-2-yl)-1-oxoisoindolin-2-yl)piperidine-2,6-dione]",–
14,83,> 10000,9,"O=C1CCC(N2Cc3cc(-c4cc(CN[C@H](CCO)c5ccccc5)ccn4)ccc3C2=O)C(=O)N1 (stereo partly drawn) [Example 131, 3-(5-(4-((((R)-3-hydroxy-1-phenylpropyl)amino)methyl)pyridin-2-yl)-1-oxoisoindolin-2-yl)piperidine-2,6-dione]",–
> 10000,28,> 10000,13,"Cc1ccc(S(=O)(=O)C2CCN(Cc3ccnc(-c4ccc5c(c4)CN(C4CCC(=O)NC4=O)C5=O)c3)CC2)cc1 (centres unmarked) [Example 132, 3-(1-oxo-5-(4-((4-tosylpiperidin-1-yl)methyl)pyridin-2-yl)isoindolin-2-yl)piperidine-2,6-dione]",–
75,84,> 10000,7,"O=C1CCC(N2Cc3cc(-c4cc(CN5CCC[C@H]5c5ccccc5)ccn4)ccc3C2=O)C(=O)N1 (stereo partly drawn) [Example 133, 3-(1-oxo-5-(4-(((S)-2-phenylpyrrolidin-1-yl)methyl)pyridin-2-yl)isoindolin-2-yl)piperidine-2,6-dione]",–
98,67,> 10000,8,"C[C@H](c1ccccc1)N(C)Cc1ccnc(-c2ccc3c(c2)CN(C2CCC(=O)NC2=O)C3=O)c1 (stereo partly drawn) [Example 137, 3-(5-(4-((methyl((R)-1-phenylethyl)amino)methyl)pyridin-2-yl)-1-oxoisoindolin-2-yl)piperidine-2,6-dione]",–
25,91,> 10000,3,"O=C1CCC(N2Cc3cc(-c4cc(CN5CC[C@@H](c6ccccc6)C5)ccn4)ccc3C2=O)C(=O)N1 (stereo partly drawn) [Example 139, 3-(1-oxo-5-(4-(((S)-3-phenylpyrrolidin-1-yl)methyl)pyridin-2-yl)isoindolin-2-yl)piperidine-2,6-dione]",–
12,76,> 10000,22,"CN[C@@H]1CCCC[C@H]1N(C)Cc1ccnc(-c2ccc3c(c2)CN(C2CCC(=O)NC2=O)C3=O)c1 (stereo partly drawn) [Example 140, 3-(5-(4-((methyl((1R,2R)-2-(methylamino)cyclohexyl)amino)methyl)pyridin-2-yl)-1-oxoisoindolin-2-yl)piperidine-2,6-dione]",–
88,83,897,52,"CN(Cc1ccnc(-c2ccc3c(c2)CN(C2CCC(=O)NC2=O)C3=O)c1)C(C)(C)c1ccccc1 (centres unmarked) [Example 142, 3-(5-(4-((methyl(2-phenylpropan-2-yl)amino)methyl)pyridin-2-yl)-1-oxoisoindolin-2-yl)piperidine-2,6-dione]",–
2020,57,> 10000,11,"NCc1ccnc(-c2ccc3c(c2)CN(C2CCC(=O)NC2=O)C3=O)c1 (centres unmarked) [Example 144, 3-{5-[4-(Aminomethyl)pyridin-2-yl]-1-oxo-2,3-dihydro-1H-isoindol-2-yl}piperidine-2,6-dione]",–
